Experimental data reported in patent publication US8633245B2, “PAI-1 inhibitor” (Institute of Medicinal Molecular Design, Inc., priority 2008, dated 2014).

Biological target: T1, recombinant human PAI-1 (Homo sapiens, UniProt P05121)
T1 construct: purchased Molecular Innovations, Inc
Assay: Test Example 1: human PAI-1 inhibitory activity (tPA fluorogenic substrate, pH 7.5 Tris buffer)
Format: biochemical
Settings: Tris buffer
Protocol: 50 mM Tris, 150 mM NaCl, 10 μg/ml BSA, 0.01% Tween80 (SIGMA-ALDRICH Corporation)

T1 sequence (P05121 24-402): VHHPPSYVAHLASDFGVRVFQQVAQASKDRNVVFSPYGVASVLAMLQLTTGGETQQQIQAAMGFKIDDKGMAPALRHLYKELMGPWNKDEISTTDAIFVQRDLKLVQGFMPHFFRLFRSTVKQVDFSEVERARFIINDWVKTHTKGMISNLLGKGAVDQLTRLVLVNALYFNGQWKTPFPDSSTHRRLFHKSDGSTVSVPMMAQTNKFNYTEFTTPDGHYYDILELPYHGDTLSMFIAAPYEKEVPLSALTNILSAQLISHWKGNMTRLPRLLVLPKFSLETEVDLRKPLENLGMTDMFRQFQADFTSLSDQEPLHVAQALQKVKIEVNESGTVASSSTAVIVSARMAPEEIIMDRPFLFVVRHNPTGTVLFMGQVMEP

Row | Inhibition Rate of PAI-1 Activity (%) (Compound Concentration 5 μM) | Inhibition Rate of PAI-1 Activity (%) (Compound Concentration 10 μM) | Inhibition Rate of PAI-1 Activity (%) (Compound Concentration 25 μM) | SMILES
1 | 3% | 22% | 76% | O=C(O)C(=O)N(Cc1ccc(Cl)cc1Cl)c1ccc(-c2ccc(OC(F)(F)F)cc2)cc1 [Compound 144]
2 | 7% | 35% | 74% | CC(C)(C)c1ccc(CN(C(=O)C(=O)O)c2ccc(-c3ccc(C(F)(F)F)cc3)cc2)cc1 [Compound 145]
3 | 33% | 73% | 90% | Cc1cc(-c2ccc(OC(F)(F)F)cc2)ccc1N(Cc1ccc(C(C)(C)C)cc1)C(=O)C(=O)O [Compound 146]
4 | 17% | 55% | 98% | CC(C)(C)c1ccc(CN(C(=O)C(=O)O)c2ccccc2-c2ccc(OC(F)(F)F)cc2)cc1 [Compound 148]
5 |  | 3% | 34% | CC(C)(C)c1ccc(CN(C(=O)C(=O)O)c2ccc(-c3ccc(C#N)cc3)cc2)cc1 [Compound 149]
6 | 33% | 75% | 87% | CC(C)(C)c1ccc(CN(C(=O)C(=O)O)c2ccc(-c3ccc(OC(F)(F)F)cc3)cc2C(F)(F)F)cc1 [Compound 150]
7 | 35% | 80% | 90% | CC(C)(C)c1ccc(CN(C(=O)C(=O)O)c2ccc(-c3ccc(OC(F)(F)F)cc3)cc2OC(F)(F)F)cc1 [Compound 151]
8 | 41% | 88% | 93% | Cc1cc(-c2ccc(OC(F)(F)F)cc2)cc(C)c1N(Cc1ccc(C(C)(C)C)cc1)C(=O)C(=O)O [Compound 152]
9 | 20% | 54% | 93% | CC(C)(C)c1ccc(CN(C(=O)C(=O)O)c2ccccc2Oc2ccc(OC(F)(F)F)cc2)cc1 [Compound 153]
10 |  | 3% | 20% | O=C(O)C(=O)N(Cc1ccccc1)c1ccc(Oc2ccc(OC(F)(F)F)cc2)cc1 [Compound 154]
11 | 7% | 15% | 38% | O=C(O)C(=O)N(Cc1ccc(F)cc1)c1ccc(-c2ccc(OC(F)(F)F)cc2)cc1 [Compound 155]
12 | 10% | 25% | 67% | CC(C)(C)c1ccc(-c2ccc(N(Cc3ccccc3)C(=O)C(=O)O)cc2)cc1 [Compound 156]
13 | 25% | 56% | 96% | CC(C)(C)c1ccc(N(C(=O)C(=O)O)c2ccccc2-c2ccc(OC(F)(F)F)cc2)cc1 [Compound 157]
14 | 26% | 61% | >99% | CC(C)(C)c1ccc(N(C(=O)C(=O)O)c2cccc(-c3ccc(OC(F)(F)F)cc3)c2)cc1 [Compound 158]
15 | 21% | 45% | 92% | O=C(O)C(=O)N(Cc1ccc(OC(F)(F)F)cc1)c1ccc(-c2ccc(OC(F)(F)F)cc2)cc1 [Compound 159]
16 | 14% | 26% | 68% | CSc1ccc(CN(C(=O)C(=O)O)c2ccc(-c3ccc(OC(F)(F)F)cc3)cc2)cc1 [Compound 160]

Row | Inhibition Rate of PAI-1 Activity (%) (Compound Concentration 5 μM) | Inhibition Rate of PAI-1 Activity (%) (Compound Concentration 10 μM) | Inhibition Rate of PAI-1 Activity (%) (Compound Concentration 25 μM) | SMILES
17 | 27% | 62% | >99% | O=C(O)C(=O)N(Cc1ccc(-c2ccccc2)cc1)c1ccc(-c2ccc(OC(F)(F)F)cc2)cc1 [Compound 161]
18 | 30% | 74% | >99% | CC(C)(C)c1ccc(-c2ccc(N(Cc3ccc(OC(F)(F)F)cc3)C(=O)C(=O)O)cc2)cc1 [Compound 162]
19 | 37% | 84% | >99% | CC(C)(C)c1ccc(CN(C(=O)C(=O)O)c2ccc(-c3ccc(C(C)(C)C)cc3)cc2)cc1 [Compound 163]
20 | 40% | 79% | 96% | CCCCc1ccc(-c2ccc(N(Cc3ccc(C(C)(C)C)cc3)C(=O)C(=O)O)cc2)cc1 [Compound 164]
21 | 27% | 64% | 96% | CC(C)(C)c1ccc(N(C(=O)C(=O)O)c2ccc(Oc3ccc(OC(F)(F)F)cc3)cc2)cc1 [Compound 165]
22 | 44% | 79% | 84% | CC(C)(C)c1ccc(CN(C(=O)C(=O)O)c2ccc(-c3ccc(OC(F)(F)F)cc3)c(C(F)(F)F)c2)cc1 [Compound 166]
23 | 37% | 75% | 87% | CCCCc1ccc(CN(C(=O)C(=O)O)c2ccc(-c3ccc(OC(F)(F)F)cc3)cc2)cc1 [Compound 167]
24 | 59% | 91% | 84% | CC(C)(C)c1ccc(CN(C(=O)C(=O)O)c2ccc(C(F)(F)F)cc2-c2ccc(OC(F)(F)F)cc2)cc1 [Compound 169]
25 | 38% | 73% | 94% | CC(C)(C)c1ccc(N(C(=O)C(=O)O)c2cccc(Oc3ccc(OC(F)(F)F)cc3)c2)cc1 [Compound 170]
26 | 22% | 44% | 81% | O=C(O)C(=O)N(Cc1c(Cl)cccc1Cl)c1ccc(-c2ccc(OC(F)(F)F)cc2)cc1 [Compound 171]
27 | 63% | 95% | 90% | CC(C)(C)c1ccc(CN(C(=O)C(=O)O)c2c(Cl)cc(-c3ccc(OC(F)(F)F)cc3)cc2Cl)cc1 [Compound 173]
28 | 66% | 94% | 87% | CC(C)(C)c1ccc(CN(C(=O)C(=O)O)c2cc(Oc3ccc(OC(F)(F)F)cc3)cc(C(F)(F)F)c2)cc1 [Compound 175]
29 | 43% | 83% | 91% | Cc1c(-c2ccc(OC(F)(F)F)cc2)cccc1N(Cc1ccc(C(C)(C)C)cc1)C(=O)C(=O)O [Compound 177]
30 | 56% | 88% | 88% | Cc1cc(-c2ccc(OC(F)(F)F)cc2)cc(N(Cc2ccc(C(C)(C)C)cc2)C(=O)C(=O)O)c1 [Compound 178]
31 | 19% | 36% | 71% | O=C(O)C(=O)N(Cc1ccccc1)c1c(Cl)cc(-c2ccc(OC(F)(F)F)cc2)cc1Cl [Compound 180]
